Measurements taken from PubChem BioAssay (NCI).
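These data come from cells grown in 96-well plates and exposed to compound for 48 hours at five concentrations. GI50 is the concentration that inhibits growth by half. TGI: concentration producing complete growth inhibition.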

Key:
Experiment in all cases: growth of human tumour cells (NCI), 48 h
A498 renal = system: A498 renal
DU-145 prostate = system: DU-145 prostate
HOP-62 NSCLC = system: HOP-62 NSCLC
HOP-92 NSCLC = system: HOP-92 NSCLC
MDA-MB-231 breast = system: MDA-MB-231 breast
MDA-MB-435 = system: MDA-MB-435
SF-295 CNS = system: SF-295 CNS
SK-MEL-28 melanoma = system: SK-MEL-28 melanoma
SK-MEL-5 melanoma = system: SK-MEL-5 melanoma
UO-31 renal = system: UO-31 renal

Cn1c(COC(=O)NCCc2ccccn2)nc2c(N3CCOCC3)nc(Cl)nc21
GI50 (A498 renal): 1.53 µM
TGI (A498 renal): 6.36 µM
GI50 (DU-145 prostate): 1.59 µM
TGI (DU-145 prostate): 3.11 µM
GI50 (HOP-62 NSCLC): 1.65 µM
TGI (HOP-62 NSCLC): 4.88 µM
GI50 (HOP-92 NSCLC): 1.13 µM
TGI (HOP-92 NSCLC): 3.22 µM
GI50 (MDA-MB-231 breast): 1.62 µM
TGI (MDA-MB-231 breast): 3.63 µM
GI50 (MDA-MB-435): 1.46 µM
TGI (MDA-MB-435): 3.46 µM
GI50 (SF-295 CNS): 6.73 µM
TGI (SF-295 CNS): 19.8 µM
GI50 (SK-MEL-28 melanoma): 1.7 µM
TGI (SK-MEL-28 melanoma): 3.47 µM
GI50 (SK-MEL-5 melanoma): 1.74 µM
TGI (SK-MEL-5 melanoma): 3.29 µM
GI50 (UO-31 renal): 1.19 µM
TGI (UO-31 renal): 2.45 µM

CC(C)Cc1cnc(CC(C)C)c(=O)[nH]1
TGI (A498 renal): > 100 µM
TGI (DU-145 prostate): > 100 µM
TGI (HOP-62 NSCLC): > 100 µM
TGI (HOP-92 NSCLC): > 100 µM
TGI (MDA-MB-231 breast): > 100 µM
TGI (MDA-MB-435): > 100 µM
TGI (SF-295 CNS): > 100 µM
TGI (SK-MEL-28 melanoma): > 100 µM
TGI (SK-MEL-5 melanoma): > 100 µM
TGI (UO-31 renal): > 100 µM

Cn1c(COC(=O)NCCn2ccnc2)nc2c(N3CCOCC3)nc(-c3ccccc3)nc21
GI50 (A498 renal): 1.25 µM
TGI (A498 renal): 2.53 µM
GI50 (DU-145 prostate): 0.888 µM
TGI (DU-145 prostate): 2.13 µM
GI50 (HOP-62 NSCLC): 1.54 µM
TGI (HOP-62 NSCLC): 3.9 µM
GI50 (HOP-92 NSCLC): 0.343 µM
TGI (HOP-92 NSCLC): 1.72 µM
GI50 (MDA-MB-231 breast): 1.06 µM
TGI (MDA-MB-231 breast): 2.34 µM
GI50 (MDA-MB-435): 0.694 µM
TGI (MDA-MB-435): 2.08 µM
GI50 (SF-295 CNS): 1.54 µM
TGI (SF-295 CNS): 2.89 µM
GI50 (SK-MEL-28 melanoma): 1.33 µM
TGI (SK-MEL-28 melanoma): 2.62 µM
GI50 (SK-MEL-5 melanoma): 1.46 µM
TGI (SK-MEL-5 melanoma): 2.81 µM
GI50 (UO-31 renal): 0.441 µM
TGI (UO-31 renal): 1.74 µM

CSc1nc(Nc2cccc(NC(=O)CCl)c2)c(C#N)c(-c2cccc([N+](=O)[O-])c2)n1
GI50 (A498 renal): 12.4 µM
TGI (A498 renal): 37.6 µM
GI50 (DU-145 prostate): 2.25 µM
TGI (DU-145 prostate): 4.57 µM
GI50 (HOP-62 NSCLC): 2.55 µM
TGI (HOP-62 NSCLC): 11.4 µM
GI50 (HOP-92 NSCLC): 1.92 µM
TGI (HOP-92 NSCLC): 7.07 µM
GI50 (MDA-MB-231 breast): 2.39 µM
TGI (MDA-MB-231 breast): 10.7 µM
GI50 (MDA-MB-435): 2.15 µM
TGI (MDA-MB-435): 5.16 µM
GI50 (SF-295 CNS): 9.83 µM
TGI (SF-295 CNS): 36.4 µM
GI50 (SK-MEL-28 melanoma): 2.15 µM
TGI (SK-MEL-28 melanoma): 4.28 µM
GI50 (SK-MEL-5 melanoma): 1.51 µM
TGI (SK-MEL-5 melanoma): 3.28 µM
GI50 (UO-31 renal): 1.62 µM
TGI (UO-31 renal): 5.73 µM

CC(C)(C)C[C@H]1N[C@@H](C(=O)NC2CCC(O)CC2)[C@H](c2cccc(Cl)c2F)[C@@]12C(=O)Nc1cc(Cl)ccc12 (stereo not given in full)
GI50 (A498 renal): 1.11 µM
TGI (A498 renal): 10.3 µM
GI50 (DU-145 prostate): 11.8 µM
TGI (DU-145 prostate): 24.3 µM
GI50 (HOP-62 NSCLC): 11.5 µM
TGI (HOP-62 NSCLC): 27.7 µM
GI50 (HOP-92 NSCLC): 3.28 µM
TGI (HOP-92 NSCLC): 15 µM
GI50 (MDA-MB-231 breast): 1.82 µM
TGI (MDA-MB-231 breast): 4.41 µM
GI50 (MDA-MB-435): 4.8 µM
TGI (MDA-MB-435): 16.6 µM
GI50 (SF-295 CNS): 3.46 µM
TGI (SF-295 CNS): 13.6 µM
GI50 (SK-MEL-28 melanoma): 3.28 µM
TGI (SK-MEL-28 melanoma): 11.7 µM
GI50 (SK-MEL-5 melanoma): 1.41 µM
TGI (SK-MEL-5 melanoma): 3.19 µM
GI50 (UO-31 renal): 0.646 µM
TGI (UO-31 renal): 11.1 µM

CCOC(=O)Nc1ccc2nc(-c3cscn3)[nH]c2c1
GI50 (A498 renal): 3.5 µM
TGI (A498 renal): 21 µM
GI50 (DU-145 prostate): 9.61 µM
TGI (DU-145 prostate): > 100 µM
GI50 (HOP-62 NSCLC): 4.91 µM
TGI (HOP-62 NSCLC): > 100 µM
GI50 (HOP-92 NSCLC): > 26.2 µM
TGI (HOP-92 NSCLC): > 100 µM
GI50 (MDA-MB-231 breast): 7.81 µM
TGI (MDA-MB-231 breast): > 100 µM
GI50 (MDA-MB-435): 0.398 µM
TGI (MDA-MB-435): 1.93 µM
GI50 (SF-295 CNS): 4.78 µM
TGI (SF-295 CNS): 57.6 µM
GI50 (SK-MEL-28 melanoma): 7.23 µM
TGI (SK-MEL-28 melanoma): > 100 µM
GI50 (SK-MEL-5 melanoma): 3.33 µM
TGI (SK-MEL-5 melanoma): > 49.1 µM
GI50 (UO-31 renal): 8.77 µM
TGI (UO-31 renal): > 100 µM

O=c1c(-c2ccc3c(c2)OCO3)coc2c3c(ccc12)OCO3
TGI (A498 renal): 83.1 µM
TGI (DU-145 prostate): > 100 µM
TGI (HOP-62 NSCLC): 38.2 µM
TGI (HOP-92 NSCLC): 38.5 µM
TGI (MDA-MB-231 breast): 41 µM
TGI (MDA-MB-435): > 100 µM
TGI (SF-295 CNS): 37.1 µM
TGI (SK-MEL-28 melanoma): > 100 µM
TGI (SK-MEL-5 melanoma): > 100 µM
TGI (UO-31 renal): > 100 µM
